Measured values taken from ChEMBL document CHEMBL1909294, “Translating clinical findings into knowledge in drug safety evaluation--drug induced liver injury prediction system (DILIps)” (PLoS Comput Biol, 2011).

Key:
Hepatotoxicity [1] = system: Hepatotoxicity;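 on HepSE bilirubinemia: bilirubinemia hepatic side effect score drawn from the DILIps training data, a prediction system for drug-induced liver injury; call rule not given here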;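 on HepSE cholecystitis: Cholecystitis-related hepatic side effect score drawn from the DILIps (drug-induced liver injury prediction) training data set; call rule not given here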;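 on HepSE cholelithiasis: hepatic side effect score for cholelithiasis, drawn from the DILIps training data for predicting drug-induced liver injury; call rule not given here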;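 on HepSE cirrhosis: cirrhosis hepatic side effect score taken from the DILIps (drug-induced liver injury prediction) training set; call rule not given here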;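 on HepSE elevated liver function tests: hepatic side effect score for raised liver function tests, as recorded in the DILIps training set used for predicting drug-induced liver injury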; on HepSE hepatic failure: call rule not given here;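 on HepSE hepatomegaly: hepatic side effect score for hepatomegaly, taken from the training set of the DILIps drug-induced liver injury prediction system; call rule not given here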
Hepatotoxicity [2] = system: Hepatotoxicity; remark: listed apart in the source;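 on HepSE bilirubinemia: bilirubinemia hepatic side effect score drawn from the DILIps training data, a prediction system for drug-induced liver injury; call rule not given here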;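 on HepSE cholecystitis: Cholecystitis-related hepatic side effect score drawn from the DILIps (drug-induced liver injury prediction) training data set; call rule not given here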;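 on HepSE cholelithiasis: hepatic side effect score for cholelithiasis, drawn from the DILIps training data for predicting drug-induced liver injury; call rule not given here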;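 on HepSE cirrhosis: cirrhosis hepatic side effect score taken from the DILIps (drug-induced liver injury prediction) training set; call rule not given here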;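 on HepSE elevated liver function tests: hepatic side effect score for raised liver function tests, as recorded in the DILIps training set used for predicting drug-induced liver injury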; on HepSE hepatic failure: call rule not given here;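 on HepSE hepatomegaly: hepatic side effect score for hepatomegaly, taken from the training set of the DILIps drug-induced liver injury prediction system; call rule not given here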
Hepatotoxicity [3] = system: Hepatotoxicity; remark: listed apart in the source;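 on HepSE bilirubinemia: bilirubinemia hepatic side effect score drawn from the DILIps training data, a prediction system for drug-induced liver injury; call rule not given here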;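 on HepSE cholecystitis: Cholecystitis-related hepatic side effect score drawn from the DILIps (drug-induced liver injury prediction) training data set; call rule not given here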;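 on HepSE cholelithiasis: hepatic side effect score for cholelithiasis, drawn from the DILIps training data for predicting drug-induced liver injury; call rule not given here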;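 on HepSE cirrhosis: cirrhosis hepatic side effect score taken from the DILIps (drug-induced liver injury prediction) training set; call rule not given here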;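 on HepSE elevated liver function tests: hepatic side effect score for raised liver function tests, as recorded in the DILIps training set used for predicting drug-induced liver injury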; on HepSE hepatic failure: call rule not given here
Hepatotoxicity [4] = system: Hepatotoxicity; remark: listed apart in the source;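 on HepSE bilirubinemia: bilirubinemia hepatic side effect score drawn from the DILIps training data, a prediction system for drug-induced liver injury; call rule not given here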;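 on HepSE cholecystitis: Cholecystitis-related hepatic side effect score drawn from the DILIps (drug-induced liver injury prediction) training data set; call rule not given here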;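 on HepSE cholelithiasis: hepatic side effect score for cholelithiasis, drawn from the DILIps training data for predicting drug-induced liver injury; call rule not given here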;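 on HepSE cirrhosis: cirrhosis hepatic side effect score taken from the DILIps (drug-induced liver injury prediction) training set; call rule not given here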;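 on HepSE elevated liver function tests: hepatic side effect score for raised liver function tests, as recorded in the DILIps training set used for predicting drug-induced liver injury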; on HepSE hepatic failure: call rule not given here
Hepatotoxicity [5] = system: Hepatotoxicity; remark: listed apart in the source; on HepSE hepatic failure: call rule not given here
Hepatotoxicity [6] = system: Hepatotoxicity; remark: listed apart in the source; on HepSE hepatic failure: call rule not given here
Hepatotoxicity [7] = system: Hepatotoxicity; remark: listed apart in the source
Hepatotoxicity [8] = system: Hepatotoxicity; remark: listed apart in the source
Hepatotoxicity [9] = system: Hepatotoxicity; remark: listed apart in the source
Hepatotoxicity [10] = system: Hepatotoxicity; remark: listed apart in the source
Hepatotoxicity [11] = system: Hepatotoxicity; remark: listed apart in the source
Hepatotoxicity [12] = system: Hepatotoxicity; remark: listed apart in the source
Hepatotoxicity [13] = system: Hepatotoxicity; remark: listed apart in the source
Hepatotoxicity [14] = system: Hepatotoxicity; remark: listed apart in the source

| Molecule | HepSE_bilirubinemia (Hepatotoxicity [1]) | HepSE_cholecystitis (Hepatotoxicity [2]) | HepSE_cholelithiasis (Hepatotoxicity [3]) | HepSE_cirrhosis (Hepatotoxicity [4]) | HepSE_elevated liver function tests (Hepatotoxicity [5]) | HepSE_hepatic failure (Hepatotoxicity [6]) | HepSE_hepatic necrosis (Hepatotoxicity [7]) | HepSE_hepatitis (Hepatotoxicity [8]) | HepSE_hepatomegaly (Hepatotoxicity [9]) | HepSE_jaundice (Hepatotoxicity [10]) | HepSE_liver disease (Hepatotoxicity [11]) | HepSE_liver fatty (Hepatotoxicity [12]) | HepSE_liver function tests abnormal (Hepatotoxicity [13]) | HepSE_Combined Scores (Hepatotoxicity [14]) | also measured |
| --- | --- | --- | --- | --- | --- | --- | --- | --- | --- | --- | --- | --- | --- | --- | --- |
| NCC(CC(=O)O)c1ccc(Cl)cc1 (configuration not stated) [BACLOFEN] | 0 | 0 | 0 | 0 | 0 | 0 | 0 | 0 | 0 | 0 | 0 | 0 | 0 | 0 | – |
| COCCOC(=O)C1=C(C)NC(C)=C(C(=O)OC(C)C)C1c1cccc([N+](=O)[O-])c1 (configuration not stated) [NIMODIPINE] | 0 | 0 | 0 | 0 | 0 | 0 | 0 | 1 | 0 | 1 | 0 | 0 | 0 | 2 | – |
| CCn1nc(C(=O)O)c(=O)c2cc3c(cc21)OCO3 [CINOXACIN] | 0 | 0 | 0 | 0 | 0 | 0 | 0 | 0 | 0 | 0 | 0 | 0 | 0 | 0 | – |
| O=C(O)Cc1ccccc1Nc1c(Cl)cccc1Cl [DICLOFENAC] | – | – | – | – | – | – | – | – | – | – | – | – | – | – | HepSE_bilirubinemia (Hepatotoxicity [1]; Liver): 0; HepSE_cholecystitis (Hepatotoxicity [2]; Liver): 0; HepSE_cholelithiasis (Hepatotoxicity [3]; Liver): 0; HepSE_cirrhosis (Hepatotoxicity [4]; Liver): 1; HepSE_elevated liver function tests (Hepatotoxicity [5]; Liver): 0; HepSE_hepatic failure (Hepatotoxicity [6]; Liver): 1; HepSE_hepatic necrosis (Hepatotoxicity [7]; Liver): 1; HepSE_hepatitis (Hepatotoxicity [8]; Liver): 1; HepSE_hepatomegaly (Hepatotoxicity [9]; Liver): 0; HepSE_jaundice (Hepatotoxicity [10]; Liver): 1; HepSE_liver disease (Hepatotoxicity [11]; Liver): 0; HepSE_liver fatty (Hepatotoxicity [12]; Liver): 0; HepSE_liver function tests abnormal (Hepatotoxicity [13]; Liver): 0; HepSE_Combined Scores (Hepatotoxicity [14]; Liver): 5 |
| CC(N)C12CC3CC(CC(C3)C1)C2 (configuration not stated) [RIMANTADINE] | 0 | 0 | 0 | 0 | 0 | 0 | 0 | 0 | 0 | 0 | 0 | 0 | 0 | 0 | – |
| O=c1[nH]c(=O)n([C@H]2C[C@H](O)[C@@H](CO)O2)cc1I [IDOXURIDINE] | 0 | 0 | 0 | 0 | 0 | 0 | 0 | 0 | 0 | 0 | 0 | 0 | 0 | 0 | – |
| CN1[C@@H]2CC[C@H]1C[C@@H](OC(c1ccccc1)c1ccccc1)C2 [BENZTROPINE] | 0 | 0 | 0 | 0 | 0 | 0 | 0 | 0 | 0 | 0 | 0 | 0 | 0 | 0 | – |
| IVERMECTIN | 0 | 0 | 0 | 0 | 0 | 0 | 0 | 0 | 0 | 0 | 0 | 0 | 0 | 0 | – |
| CCCCC[C@H](O)CC[C@@H]1[C@H]2Cc3cccc(OCC(=O)O)c3C[C@H]2C[C@H]1O [TREPROSTINIL] | 0 | 0 | 0 | 0 | 0 | 0 | 0 | 0 | 0 | 0 | 0 | 0 | 0 | 0 | – |
| COc1cccc2c1C(=O)c1c(O)c3c(c(O)c1C2=O)C[C@@](O)(C(=O)CO)C[C@@H]3O[C@H]1C[C@H](N)[C@H](O)[C@H](C)O1 [DOXORUBICIN] | 1 | 0 | 0 | 0 | 0 | 1 | 0 | 1 | 0 | 1 | 0 | 0 | 1 | 5 | – |
| CS(=O)(=O)c1ccc(C2=C(c3ccccc3)C(=O)OC2)cc1 [ROFECOXIB] | 0 | 1 | 0 | 0 | 0 | 1 | 0 | 1 | 0 | 1 | 0 | 0 | 0 | 4 | – |
| CN(C)CCOc1ccc(/C(=C(/CCCl)c2ccccc2)c2ccccc2)cc1 [TOREMIFENE] | 0 | 0 | 0 | 0 | 0 | 0 | 0 | 0 | 0 | 1 | 0 | 0 | 1 | 2 | – |
| O=C1OC2(c3ccc(O)cc3Oc3cc(O)ccc32)c2ccccc21 [FLUORESCEIN] | 0 | 0 | 0 | 0 | 0 | 0 | 0 | 0 | 0 | 0 | 0 | 0 | 0 | 0 | – |
| OC(CNCC(O)C1CCc2cc(F)ccc2O1)C1CCc2cc(F)ccc2O1 (configuration not stated) [NEBIVOLOL] | 0 | 0 | 0 | 0 | 0 | 0 | 0 | 0 | 0 | 0 | 0 | 0 | 0 | 0 | – |
| CC(COc1ccccc1)N(CCCl)Cc1ccccc1 (configuration not stated) [PHENOXYBENZAMINE] | 0 | 0 | 0 | 0 | 0 | 0 | 0 | 0 | 0 | 0 | 0 | 0 | 0 | 0 | – |
| O=C1CN=C(c2ccccc2Cl)c2cc([N+](=O)[O-])ccc2N1 [CLONAZEPAM] | 0 | 0 | 0 | 0 | 0 | 0 | 0 | 0 | 1 | 0 | 0 | 0 | 0 | 1 | – |
| C[C@](N)(Cc1ccc(O)c(O)c1)C(=O)O [METHYLDOPA] | 0 | 0 | 0 | 0 | 0 | 0 | 0 | 1 | 0 | 1 | 0 | 0 | 1 | 3 | – |
| CCOC(=O)[C@H](CCc1ccccc1)N[C@@H](C)C(=O)N1[C@H](C(=O)O)C[C@@H]2CCC[C@@H]21 | 0 | 0 | 0 | 0 | 0 | 1 | 1 | 1 | 0 | 1 | 0 | 0 | 0 | 4 | – |
